Results: article PMC8056388 (ACS Chemical Biology, 2021)

How the values were obtained:
phzH = assay: qRT-PCR of phzH transcript; conditions: P. aeruginosa PA14, 100 μM compound
PqsE S285A [1] = target: T1, PqsE S285A (Pseudomonas aeruginosa, UniProt P20581, S285A); type: biochemical
PqsE S285A [2] = target: T1, PqsE S285A; type: binding
PqsE-RhlR interaction = PqsE-RhlR interaction (Pseudomonas aeruginosa, UniProt P20581); assay: PqsE-RhlR interaction pull-down assay; type: binding; conditions: PqsE:compound 1:1 and 1:2 molar ratios, SDS-PAGE
P. aeruginosa PA14 = type: cell-based; conditions: P. aeruginosa PA14 cultures, 100 μM compound, 17 h
PqsE S160A = PqsE S160A (Pseudomonas aeruginosa, UniProt P20581, S160A); type: binding
hcnA = assay: qRT-PCR of hcnA transcript; conditions: P. aeruginosa PA14, 100 μM compound
WT PqsE [3] = target: T2, WT PqsE (Pseudomonas aeruginosa, UniProt P20581); assay: biochemical; type: binding
P. aeruginosa PAO1 = conditions: cited from earlier work
WT PqsE [4] = target: T2, WT PqsE; assay: Fluorescence polarization binding of BB562; conditions: purified WT PqsE

Row | Structure (SMILES) | transcription of phzH (phzH) | projected IC50 for PqsE S285A relative to WT PqsE (PqsE S285A [1]) | ΔTm PqsE S285A (PqsE S285A [2]) | suppression of the interaction between PqsE and RhlR (PqsE-RhlR interaction) | pyocyanin production (P. aeruginosa PA14) | ΔTm PqsE S160A (PqsE S160A) [°C] | transcription of hcnA (hcnA) | EC50 (WT PqsE [3]) [nM] | pyocyanin production (P. aeruginosa PAO1) | apparent binding constant (Kapp), in words (WT PqsE [4])
1 | O=C(Nc1cccc(-c2ccn[nH]2)c1)c1cccc2cn[nH]c12 [BB391] | neither molecule drove altered transcription | at least a log unit higher | lost the ability to shift the Tm | neither BB391 nor BB393 suppressed the interaction | neither molecule caused any decrease in pyocyanin production | 5.0 | neither molecule drove altered transcription | 255 |  | 
2 | O=C(O)c1ccccc1-c1cccnc1 [C1, 2-(pyridin-3′-yl) benzoic acid, reference compound] |  |  | 8.5 °C |  |  | 12.1 |  |  | did not affect pyocyanin production | 
3 | O=C(NCCCn1cc(-c2ccc(NC(=O)c3cccc4cn[nH]c34)cc2)nn1)c1ccc2c(c1)C(=O)OC21c2ccc(O)cc2Oc2cc(O)ccc21 [BB562] |  |  |  |  |  |  |  |  |  | midnanomolar range
